Assay results published in paper PMC12155096 (International Journal of Molecular Sciences, 2025).
pIC50: −log10 of the molar value.

biological target: Photinus pyralis (firefly) luciferase (Photinus pyralis, UniProt P08659); assay: biochemical; type: biochemical; settings: not given
Sequence (P08659 whole entry): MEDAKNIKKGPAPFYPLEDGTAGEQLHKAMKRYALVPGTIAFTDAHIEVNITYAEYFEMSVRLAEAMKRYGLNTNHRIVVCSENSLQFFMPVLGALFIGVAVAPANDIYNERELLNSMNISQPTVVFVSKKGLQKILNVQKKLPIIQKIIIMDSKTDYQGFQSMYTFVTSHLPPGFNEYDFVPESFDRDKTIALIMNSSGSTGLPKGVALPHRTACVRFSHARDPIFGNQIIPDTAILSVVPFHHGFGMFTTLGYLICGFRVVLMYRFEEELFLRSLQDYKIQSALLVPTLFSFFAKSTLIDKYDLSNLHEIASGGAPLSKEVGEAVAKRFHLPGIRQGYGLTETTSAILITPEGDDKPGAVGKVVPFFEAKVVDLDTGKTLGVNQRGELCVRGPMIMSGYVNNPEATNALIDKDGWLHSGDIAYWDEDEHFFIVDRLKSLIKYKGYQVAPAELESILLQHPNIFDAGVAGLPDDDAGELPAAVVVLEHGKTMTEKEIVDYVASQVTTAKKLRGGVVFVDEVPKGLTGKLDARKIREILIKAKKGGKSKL

| SMILES | pIC50 | Luciferase IC50 | Luciferase IC50 (half-maximal inhibitory concentration) |
| --- | --- | --- | --- |
| c1ccc(CCCc2ccncc2)cc1 [4-(3-Phenylpropyl)pyridine] | 4.26 |  |  |
| OCc1c2ccccc2cc2ccccc12 [9-Anthracenemethanol] | 4.16 |  |  |
| ClC1=C(Cl)C2(Cl)C3C4C=CC(C4)C3C1(Cl)C2(Cl)Cl (stereo not shown) [Aldrin] |  | Inactive |  |
| CC(C)(C)C(O)C(Oc1ccc(-c2ccccc2)cc1)n1cncn1 (stereo not shown) [Bitertanol] |  |  | Inactive |
| Clc1ccc(C2(Cn3cncn3)CC(Br)CO2)c(Cl)c1 (stereo not shown) [Bromuconazole] |  |  | Inactive |
| CCCCOCN(C(=O)CCl)c1c(CC)cccc1CC [Butachlor] |  |  | Inactive |
| CCOCn1c(-c2ccc(Cl)cc2)c(C#N)c(Br)c1C(F)(F)F [Chlorfenapyr] |  |  | Inactive |
| O=C1c2ccccc2C(=O)C1C(=O)C(c1ccccc1)c1ccc(Cl)cc1 (stereo not shown) [Chlorophacinone] |  |  | Inactive |
| CCOP(=S)(OCC)SC(CCl)N1C(=O)c2ccccc2C1=O (stereo not shown) [Dialifor] |  |  | Inactive |

biological target: CYP3A4 (Homo sapiens, UniProt P08684); assay: biochemical; settings: not given
Sequence (P08684 whole entry): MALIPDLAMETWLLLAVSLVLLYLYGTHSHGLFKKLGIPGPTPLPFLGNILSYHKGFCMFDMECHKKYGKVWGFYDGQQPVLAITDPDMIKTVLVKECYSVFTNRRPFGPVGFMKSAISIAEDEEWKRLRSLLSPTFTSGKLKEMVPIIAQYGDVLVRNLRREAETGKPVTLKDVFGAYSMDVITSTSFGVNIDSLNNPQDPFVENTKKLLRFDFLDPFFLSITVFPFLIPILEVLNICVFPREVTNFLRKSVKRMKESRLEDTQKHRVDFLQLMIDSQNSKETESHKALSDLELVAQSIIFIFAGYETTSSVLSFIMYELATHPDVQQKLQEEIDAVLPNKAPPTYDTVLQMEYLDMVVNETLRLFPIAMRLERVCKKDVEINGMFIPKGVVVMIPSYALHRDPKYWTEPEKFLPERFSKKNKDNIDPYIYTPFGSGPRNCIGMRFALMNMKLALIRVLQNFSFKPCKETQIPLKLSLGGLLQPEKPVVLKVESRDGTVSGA

| SMILES | pIC50 | AC50 [µM] |
| --- | --- | --- |
| c1ccc(CCCc2ccncc2)cc1 [4-(3-Phenylpropyl)pyridine] | 6.37 |  |
| Cc1ccnc2ccccc12 [Lepidine] |  | 31.1 |

same assay, conditions: CYP3A4 AC50 (half-maximal activity concentration)

| SMILES | AC50 [µM] |
| --- | --- |
| Cc1cccc2sc(N)nc12 [2-Amino-4-methylbenzothiazole] | 11.8 |
| O=C1C(=O)c2cccc3cccc1c23 [Acenaphthenequinone] | 23.7 |
| O=C1c2ccccc2C(=O)C1C(=O)C(c1ccccc1)c1ccc(Cl)cc1 (stereo not shown) [Chlorophacinone] | 33.6 |
| CNC(=O)Oc1cc(C)cc(C(C)C)c1 [Promecarb] | 25.3 |
| O=C(CCN1CCC(c2ccccc2)C1)c1ccc2c(c1)OCCO2 (stereo not shown) [Proroxan] | 28.8 |
| Cc1ccccc1OP(=O)(Oc1ccccc1C)Oc1ccccc1C [Tri-o-cresyl phosphate] | 2.11 |
| COP(=O)(OC)O/C(=C\Cl)c1cc(Cl)c(Cl)cc1Cl [Z-Tetrachlorvinphos] | 2.49 |

same assay, conditions: CYP3A4 IC50

| SMILES | pIC50 |
| --- | --- |
| ClC1=C(Cl)C2(Cl)C3C4C=CC(C4)C3C1(Cl)C2(Cl)Cl (stereo not shown) [Aldrin] | 6.55 |

same assay, conditions: CYP3A4 IC50 (half-maximal inhibitory concentration)

| SMILES | pIC50 |
| --- | --- |
| OCc1c2ccccc2cc2ccccc12 [9-Anthracenemethanol] | 4.53 |
| CC(C)(C)C(O)C(Oc1ccc(-c2ccccc2)cc1)n1cncn1 (stereo not shown) [Bitertanol] | 6.17 |
| Clc1ccc(C2(Cn3cncn3)CC(Br)CO2)c(Cl)c1 (stereo not shown) [Bromuconazole] | 7.10 |
| CCCCOCN(C(=O)CCl)c1c(CC)cccc1CC [Butachlor] | 5.16 |
| CCOCn1c(-c2ccc(Cl)cc2)c(C#N)c(Br)c1C(F)(F)F [Chlorfenapyr] | 4.43 |
| O=C1c2ccccc2C(=O)C1C(=O)C(c1ccccc1)c1ccc(Cl)cc1 (stereo not shown) [Chlorophacinone] | 4.47 |
| CCOP(=S)(OCC)SC(CCl)N1C(=O)c2ccccc2C1=O (stereo not shown) [Dialifor] | 5.78 |

biological target: T1, human CYP2C19 (Homo sapiens, UniProt P33261); assay: biochemical; settings: not given
T1 sequence (P33261 whole entry): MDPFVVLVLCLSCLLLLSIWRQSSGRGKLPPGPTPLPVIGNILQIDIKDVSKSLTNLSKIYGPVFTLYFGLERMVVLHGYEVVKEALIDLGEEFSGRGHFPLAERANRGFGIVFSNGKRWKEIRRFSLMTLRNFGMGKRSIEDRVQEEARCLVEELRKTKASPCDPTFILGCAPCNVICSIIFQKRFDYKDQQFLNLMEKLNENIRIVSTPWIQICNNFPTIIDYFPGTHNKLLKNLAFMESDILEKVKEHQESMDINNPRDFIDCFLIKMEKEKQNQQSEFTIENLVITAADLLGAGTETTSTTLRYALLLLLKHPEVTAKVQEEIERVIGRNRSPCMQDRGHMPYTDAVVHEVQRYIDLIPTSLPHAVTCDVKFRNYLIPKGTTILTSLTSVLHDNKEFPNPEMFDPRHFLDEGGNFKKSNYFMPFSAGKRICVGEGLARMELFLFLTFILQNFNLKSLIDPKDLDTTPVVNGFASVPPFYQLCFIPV

| SMILES | pIC50 |
| --- | --- |
| c1ccc(CCCc2ccncc2)cc1 [4-(3-Phenylpropyl)pyridine] | 6.15 |

same assay, conditions: CYP2C19 AC50 (half-maximal activity concentration)

| SMILES | AC50 [µM] |
| --- | --- |
| Cc1cccc2sc(N)nc12 [2-Amino-4-methylbenzothiazole] | 27.8 |
| O=C1C(=O)c2cccc3cccc1c23 [Acenaphthenequinone] | 35.7 |
| O=C1c2ccccc2C(=O)C1C(=O)C(c1ccccc1)c1ccc(Cl)cc1 (stereo not shown) [Chlorophacinone] | 11 |
| CNC(=O)Oc1cc(C)cc(C(C)C)c1 [Promecarb] | 42.2 |
| O=C(CCN1CCC(c2ccccc2)C1)c1ccc2c(c1)OCCO2 (stereo not shown) [Proroxan] | 39.1 |
| Cc1ccccc1OP(=O)(Oc1ccccc1C)Oc1ccccc1C [Tri-o-cresyl phosphate] | 1.3 |
| COP(=O)(OC)O/C(=C\Cl)c1cc(Cl)c(Cl)cc1Cl [Z-Tetrachlorvinphos] | 5.82 |

same assay, conditions: CYP2C19 IC50

| SMILES | pIC50 |
| --- | --- |
| ClC1=C(Cl)C2(Cl)C3C4C=CC(C4)C3C1(Cl)C2(Cl)Cl (stereo not shown) [Aldrin] | 4.56 |

same assay, conditions: CYP2C19 IC50 (half-maximal inhibitory concentration)

| SMILES | pIC50 |
| --- | --- |
| OCc1c2ccccc2cc2ccccc12 [9-Anthracenemethanol] | 4.58 |
| CC(C)(C)C(O)C(Oc1ccc(-c2ccccc2)cc1)n1cncn1 (stereo not shown) [Bitertanol] | 4.32 |
| Clc1ccc(C2(Cn3cncn3)CC(Br)CO2)c(Cl)c1 (stereo not shown) [Bromuconazole] | 6.92 |
| CCCCOCN(C(=O)CCl)c1c(CC)cccc1CC [Butachlor] | 6.08 |
| CCOCn1c(-c2ccc(Cl)cc2)c(C#N)c(Br)c1C(F)(F)F [Chlorfenapyr] | 5.33 |
| O=C1c2ccccc2C(=O)C1C(=O)C(c1ccccc1)c1ccc(Cl)cc1 (stereo not shown) [Chlorophacinone] | 4.96 |
| CCOP(=S)(OCC)SC(CCl)N1C(=O)c2ccccc2C1=O (stereo not shown) [Dialifor] | 6.42 |

biological target: human CYP2D6 (Homo sapiens, UniProt P10635); assay: biochemical; settings: not given
Sequence (P10635 whole entry): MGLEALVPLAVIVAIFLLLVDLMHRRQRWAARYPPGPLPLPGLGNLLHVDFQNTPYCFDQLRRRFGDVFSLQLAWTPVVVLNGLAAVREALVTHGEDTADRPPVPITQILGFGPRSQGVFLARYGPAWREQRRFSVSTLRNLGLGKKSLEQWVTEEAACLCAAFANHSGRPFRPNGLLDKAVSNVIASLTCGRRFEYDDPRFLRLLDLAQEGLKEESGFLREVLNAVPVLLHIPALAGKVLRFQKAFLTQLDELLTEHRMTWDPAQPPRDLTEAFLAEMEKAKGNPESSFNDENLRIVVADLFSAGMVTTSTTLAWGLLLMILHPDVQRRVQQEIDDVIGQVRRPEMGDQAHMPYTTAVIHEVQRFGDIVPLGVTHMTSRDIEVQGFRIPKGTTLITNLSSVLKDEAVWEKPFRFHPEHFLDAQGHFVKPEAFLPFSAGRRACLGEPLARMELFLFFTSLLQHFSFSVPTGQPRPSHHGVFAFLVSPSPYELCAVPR

| SMILES | pIC50 | AC50 [µM] |
| --- | --- | --- |
| c1ccc(CCCc2ccncc2)cc1 [4-(3-Phenylpropyl)pyridine] | 5.41 |  |
| CCOP(=S)(OCC)SC(CCl)N1C(=O)c2ccccc2C1=O (stereo not shown) [Dialifor] | 4.41 |  |
| Cc1ccnc2ccccc12 [Lepidine] |  | 61.3 |

same assay, conditions: CYP2D6 AC50 (half-maximal activity concentration)

| SMILES | AC50 [µM] |
| --- | --- |
| Cc1cccc2sc(N)nc12 [2-Amino-4-methylbenzothiazole] | 41.1 |
| O=C1C(=O)c2cccc3cccc1c23 [Acenaphthenequinone] | 23.4 |
| O=C1c2ccccc2C(=O)C1C(=O)C(c1ccccc1)c1ccc(Cl)cc1 (stereo not shown) [Chlorophacinone] | 44.9 |
| CNC(=O)Oc1cc(C)cc(C(C)C)c1 [Promecarb] | 58.1 |
| O=C(CCN1CCC(c2ccccc2)C1)c1ccc2c(c1)OCCO2 (stereo not shown) [Proroxan] | 2.28 |
| Cc1ccccc1OP(=O)(Oc1ccccc1C)Oc1ccccc1C [Tri-o-cresyl phosphate] | 43.3 |
| COP(=O)(OC)O/C(=C\Cl)c1cc(Cl)c(Cl)cc1Cl [Z-Tetrachlorvinphos] | 56.6 |

same assay, conditions: CYP2D6 IC50

| SMILES | pIC50 |
| --- | --- |
| ClC1=C(Cl)C2(Cl)C3C4C=CC(C4)C3C1(Cl)C2(Cl)Cl (stereo not shown) [Aldrin] | 4.35 |

same assay, conditions: CYP2D6 IC50 (half-maximal inhibitory concentration)

| SMILES | pIC50 |
| --- | --- |
| OCc1c2ccccc2cc2ccccc12 [9-Anthracenemethanol] | 4.22 |
| CC(C)(C)C(O)C(Oc1ccc(-c2ccccc2)cc1)n1cncn1 (stereo not shown) [Bitertanol] | 4.20 |
| Clc1ccc(C2(Cn3cncn3)CC(Br)CO2)c(Cl)c1 (stereo not shown) [Bromuconazole] | 4.68 |
| CCCCOCN(C(=O)CCl)c1c(CC)cccc1CC [Butachlor] | 4.29 |
| CCOCn1c(-c2ccc(Cl)cc2)c(C#N)c(Br)c1C(F)(F)F [Chlorfenapyr] | 4.48 |
| O=C1c2ccccc2C(=O)C1C(=O)C(c1ccccc1)c1ccc(Cl)cc1 (stereo not shown) [Chlorophacinone] | 4.35 |

biological target: T2, human CYP2C9 (Homo sapiens, UniProt P11712); assay: not given; settings: not given
T2 sequence (P11712 whole entry): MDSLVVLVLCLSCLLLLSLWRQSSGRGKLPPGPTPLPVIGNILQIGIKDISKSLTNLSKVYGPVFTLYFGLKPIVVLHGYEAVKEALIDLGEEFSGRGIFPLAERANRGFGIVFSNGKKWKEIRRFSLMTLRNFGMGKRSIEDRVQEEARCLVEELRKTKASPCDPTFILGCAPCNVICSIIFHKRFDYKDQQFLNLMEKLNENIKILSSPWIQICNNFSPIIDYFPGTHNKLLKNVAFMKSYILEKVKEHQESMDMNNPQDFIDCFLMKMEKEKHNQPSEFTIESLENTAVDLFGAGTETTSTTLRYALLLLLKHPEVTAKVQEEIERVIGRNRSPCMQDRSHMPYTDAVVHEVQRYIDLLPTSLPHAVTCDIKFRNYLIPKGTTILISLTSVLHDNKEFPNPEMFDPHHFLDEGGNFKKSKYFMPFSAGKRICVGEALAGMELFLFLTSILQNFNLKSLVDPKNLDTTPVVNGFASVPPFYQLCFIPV

| SMILES | CYP2C9 AC50 (half-maximal activity concentration) |
| --- | --- |
| Cc1cccc2sc(N)nc12 [2-Amino-4-methylbenzothiazole] | Inconclusive inhibitor |
| O=C1C(=O)c2cccc3cccc1c23 [Acenaphthenequinone] | Inconclusive inhibitor |
| Cc1ccnc2ccccc12 [Lepidine] | Inconclusive activator |
| CNC(=O)Oc1cc(C)cc(C(C)C)c1 [Promecarb] | Inactive |
| O=C(CCN1CCC(c2ccccc2)C1)c1ccc2c(c1)OCCO2 (stereo not shown) [Proroxan] | Inconclusive inhibitor |

biological target: T2, human CYP2C9; assay: biochemical; settings: not given

| SMILES | pIC50 |
| --- | --- |
| c1ccc(CCCc2ccncc2)cc1 [4-(3-Phenylpropyl)pyridine] | 5.73 |
| CCOP(=S)(OCC)SC(CCl)N1C(=O)c2ccccc2C1=O (stereo not shown) [Dialifor] | 5.95 |

same assay, conditions: CYP2C9 AC50 (half-maximal activity concentration)

| SMILES | AC50 [µM] |
| --- | --- |
| O=C1c2ccccc2C(=O)C1C(=O)C(c1ccccc1)c1ccc(Cl)cc1 (stereo not shown) [Chlorophacinone] | 0.76 |
| Cc1ccccc1OP(=O)(Oc1ccccc1C)Oc1ccccc1C [Tri-o-cresyl phosphate] | 4.9 |
| COP(=O)(OC)O/C(=C\Cl)c1cc(Cl)c(Cl)cc1Cl [Z-Tetrachlorvinphos] | 38.8 |

same assay, conditions: CYP2C9 IC50

| SMILES | pIC50 |
| --- | --- |
| ClC1=C(Cl)C2(Cl)C3C4C=CC(C4)C3C1(Cl)C2(Cl)Cl (stereo not shown) [Aldrin] | 4.47 |

same assay, conditions: CYP2C9 IC50 (half-maximal inhibitory concentration)

| SMILES | pIC50 |
| --- | --- |
| OCc1c2ccccc2cc2ccccc12 [9-Anthracenemethanol] | 4.56 |
| CC(C)(C)C(O)C(Oc1ccc(-c2ccccc2)cc1)n1cncn1 (stereo not shown) [Bitertanol] | 5.12 |
| Clc1ccc(C2(Cn3cncn3)CC(Br)CO2)c(Cl)c1 (stereo not shown) [Bromuconazole] | 5.47 |
| CCCCOCN(C(=O)CCl)c1c(CC)cccc1CC [Butachlor] | 5.29 |
| CCOCn1c(-c2ccc(Cl)cc2)c(C#N)c(Br)c1C(F)(F)F [Chlorfenapyr] | 5.01 |
| O=C1c2ccccc2C(=O)C1C(=O)C(c1ccccc1)c1ccc(Cl)cc1 (stereo not shown) [Chlorophacinone] | 6.12 |

biological target: T1, human CYP2C19; assay: not given; settings: not given

| SMILES | CYP2C19 AC50 (half-maximal activity concentration) |
| --- | --- |
| Cc1ccnc2ccccc12 [Lepidine] | Inconclusive |

biological target: T3, human CYP1A2 (Homo sapiens, UniProt P05177); assay: biochemical; settings: not given
T3 sequence (P05177 1-516): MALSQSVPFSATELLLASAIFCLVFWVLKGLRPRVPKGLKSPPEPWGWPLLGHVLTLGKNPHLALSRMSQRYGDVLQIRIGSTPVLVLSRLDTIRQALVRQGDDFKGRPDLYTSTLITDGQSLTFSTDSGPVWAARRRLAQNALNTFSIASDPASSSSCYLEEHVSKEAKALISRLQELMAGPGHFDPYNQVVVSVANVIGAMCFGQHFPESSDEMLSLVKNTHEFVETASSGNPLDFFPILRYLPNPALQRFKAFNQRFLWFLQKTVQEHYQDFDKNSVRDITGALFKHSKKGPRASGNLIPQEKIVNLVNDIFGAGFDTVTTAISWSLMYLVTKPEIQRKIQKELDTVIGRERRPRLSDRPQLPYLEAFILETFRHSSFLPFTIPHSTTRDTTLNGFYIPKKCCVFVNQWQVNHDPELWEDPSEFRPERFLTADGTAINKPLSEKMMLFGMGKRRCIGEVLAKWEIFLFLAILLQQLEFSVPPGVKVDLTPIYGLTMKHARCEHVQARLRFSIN

| SMILES | pIC50 | AC50 [µM] |
| --- | --- | --- |
| c1ccc(CCCc2ccncc2)cc1 [4-(3-Phenylpropyl)pyridine] | 5.94 |  |
| Cc1ccnc2ccccc12 [Lepidine] |  | 38.4 |

same assay, conditions: CYP1A2 AC50 (half-maximal activity concentration)

| SMILES | AC50 [µM] |
| --- | --- |
| Cc1cccc2sc(N)nc12 [2-Amino-4-methylbenzothiazole] | 21.2 |
| O=C1C(=O)c2cccc3cccc1c23 [Acenaphthenequinone] | 7.99 |
| O=C1c2ccccc2C(=O)C1C(=O)C(c1ccccc1)c1ccc(Cl)cc1 (stereo not shown) [Chlorophacinone] | 8.52 |
| CNC(=O)Oc1cc(C)cc(C(C)C)c1 [Promecarb] | 26.9 |
| O=C(CCN1CCC(c2ccccc2)C1)c1ccc2c(c1)OCCO2 (stereo not shown) [Proroxan] | 32.3 |
| Cc1ccccc1OP(=O)(Oc1ccccc1C)Oc1ccccc1C [Tri-o-cresyl phosphate] | 32 |
| COP(=O)(OC)O/C(=C\Cl)c1cc(Cl)c(Cl)cc1Cl [Z-Tetrachlorvinphos] | 2.28 |

same assay, conditions: CYP1A2 IC50

| SMILES | pIC50 |
| --- | --- |
| ClC1=C(Cl)C2(Cl)C3C4C=CC(C4)C3C1(Cl)C2(Cl)Cl (stereo not shown) [Aldrin] | 4.45 |

same assay, conditions: CYP1A2 IC50 (half-maximal inhibitory concentration)

| SMILES | pIC50 |
| --- | --- |
| OCc1c2ccccc2cc2ccccc12 [9-Anthracenemethanol] | 6.15 |
| CC(C)(C)C(O)C(Oc1ccc(-c2ccccc2)cc1)n1cncn1 (stereo not shown) [Bitertanol] | 4.31 |
| Clc1ccc(C2(Cn3cncn3)CC(Br)CO2)c(Cl)c1 (stereo not shown) [Bromuconazole] | 4.66 |
| CCCCOCN(C(=O)CCl)c1c(CC)cccc1CC [Butachlor] | 4.29 |
| CCOCn1c(-c2ccc(Cl)cc2)c(C#N)c(Br)c1C(F)(F)F [Chlorfenapyr] | 6.22 |
| O=C1c2ccccc2C(=O)C1C(=O)C(c1ccccc1)c1ccc(Cl)cc1 (stereo not shown) [Chlorophacinone] | 5.07 |
| CCOP(=S)(OCC)SC(CCl)N1C(=O)c2ccccc2C1=O (stereo not shown) [Dialifor] | 4.16 |
